Experimental data published in article PMC3017600 (Nucleic Acids Research, 2010).
Values belong to the molecule of their own block, whether it stands above or below them. Where no end group is shown, it is not given here. [ ]: non-standard residue; d: D form. pS = N[C@@H](COP(=O)(O)O)C(=O)O

Key:
[1] = test system: TopBP1(1–290) double mutants; test: Fluorescence polarization binding, double mutants; design: species or system human; settings: putative binding sites in both BRCT1 and BRCT2 disrupted
TopBP1(1–290) wild-type = TopBP1(1–290) wild-type (Homo sapiens, UniProt Q92547); type: binding; settings: fluorescence polarization; 10 nM fluorescein-labelled peptide; 4°C, 30 min
TopBP1(1–290) [2] = molecular target: TopBP1(1–290) (human, UniProt Q92547 1-290); test: fluorescence polarisation
TopBP1(1–290) [3] = test: Co-precipitation; type: binding, human; settings: Glutathione Sepharose; no Mg-ATP; SDS–PAGE

TopBP1(1–290) (human, UniProt Q92547 1-290), sequence (Q92547 1-290): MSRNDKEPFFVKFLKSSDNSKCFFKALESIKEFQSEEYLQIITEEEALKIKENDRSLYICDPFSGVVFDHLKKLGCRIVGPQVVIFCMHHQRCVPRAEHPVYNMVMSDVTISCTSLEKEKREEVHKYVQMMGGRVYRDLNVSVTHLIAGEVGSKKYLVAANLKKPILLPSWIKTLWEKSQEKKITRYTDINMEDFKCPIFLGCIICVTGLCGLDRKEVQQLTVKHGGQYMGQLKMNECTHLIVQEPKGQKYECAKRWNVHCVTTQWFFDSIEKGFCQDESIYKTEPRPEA
TopBP1(1–290) wild-type, sequence (Q92547 1-290): as above

Interaction with TopBP1(1–290) double mutants (in words) [1]: no measurable interaction
Molecule: fluorescein-GGPSPVLAED[pS]EGEG [Rad9, pS387]

Binding to wild-type TopBP1(1–290) (in words) (TopBP1(1–290) wild-type): no significant affinity was observed
Molecule: fluorescein-GGSDTDSH[pS]QDLGSPE [Rad9, pS272]

Kd (TopBP1(1–290) [2]): 2100 nM
Molecule: fluorescein-GGPSPVLAED[pS]EGEG (also: phosphoserine at 387 (Rad9 numbering)) [Rad9, pS387 fluorescein-labelled peptide]

B1: GST-Rad9Tail: GST-fusion with the C-terminus of human Rad9 (amino acids 264–391), expressed in E. coli (protein)
chain: TLSDTDSHSQDLGSPERHQPVPQLQAHSTPHPDDFANDDIDSYMIAMETTIGNEGSRVLPSISLSPGPQPPKSPGPHSEEEDEAEPSTVPGTPPPKKFRSLFFGSILAPVRSPQGPSPVLAEDSEGEG
modifications: left off: GST, N-terminal, kept
Co-precipitation of TopBP1(1–290) by GST fusion incubated with CK2α in the absence of Mg-ATP (TopBP1(1–290) [3]): failed to co-precipitate detectable
